Series [1] deals with PGRN-SORT1 interaction. Kind of series: PGRN-SORT1 co-immunoprecipitation. In kind it is biochemical, human. The following applies: HEK293 lysate with Flag-SORT1, 100 nM rPGRN, peptide at 10 M (sic; method 20 μM), densitometry. As for the experimental part:
HEK293T cells were transfected empty vector or pCMV-SORT1-Flag vector for 48 h. Then, cells were lysed by using Co-IP buffer. Pre-incubation was performed with 300 μg of lysate protein mixed with 20 μM NTS, human PGRN(588–593) peptide or mouse PGRN(584–589) peptide for 1 h. Then, rPGRN (100 nM) was added into the protein G beads pre-cleared supernatant and mixed for 30 min. Next, anti-Flag M2 agarose (Sigma) was added and mixed for another 4 h. The agarose was collected by centrifugation at 1000 g for 3 min and washed with Co-IP buffer six times. Captured protein was eluted from the beads using loading buffer and analyzed by western blot.

The test system of series [2] is SORT1-mediated PGRN endocytosis. As to the kind of experiment: Quantitative DyL-rPGRN endocytosis assay in COS-1^SORT1 cells. The following applies: 1 h; for inhibition of full-length PGRN endocytosis: COS-1^SORT1, ligand 10 μM (Fig. 4 legend), added simultaneously with DyL-rPGRN, vs vehicle. Format: cell-based, human. On the procedure: COS-1 cells seeded on a 96-well black plate 1 day before were transfected with pCMV-SORT1 vector. After 24 h, cells were treated with fluorescence-tagged rPGRN (DyL-rPGRN) pre-labeled by DyLight™ 594 antibody labeling kit (Thermo Scientific). The DyL-rPGRN was diluted in OptiMEM to tested concentrations and incubated with the cells for 1 h for endocytosis. The cells were then washed with cold PBS and then fixed by 4% paraformaldehyde. After washing twice, each well was filled with PBS prior scanning. The total PGRN fluorescent signal from the cells was obtained by a plate reader with 593/618 nm (Ex/Em) settings. The endocytosis signal was normalized by the total nuclei signal obtained by staining with a Hoechst 33342 dye. Baseline endocytosis signal was defined as a signal from medium-only-treated cells, whereas the 100% endocytosis level was set as the signal obtained from cells treated with 50 nM DyL-rPGRN. For testing SORT1 ligands, DyL-rPGRN and the peptide were added simultaneously to the cells. For testing of PGRN binders, the binder was pre-incubated with DyL-rPGRN for 1 h before adding to the cells. For qualitative analysis, images from each well were captured by BD Pathway 855 system using a 20× magnification setting.

Series [3] concerns neutrophil elastase. As to the kind of experiment: Neutrophil elastase digestion of synthetic PGRN peptide, MALDI-MS. In kind it is in vitro ADME. As for the experimental part: An enzymatic reaction was set up with 7 μg of custom-synthesized PGRN(584–593) peptide (Mayo peptide synthesis core) and 20 μg of NE in a 25 μl reaction at 37°C. Every 10 min, 4 μl of the mixture was collected and diluted 10 times in a solvent mixture (50% acetonitrile:50% water:0.1% acetic acid) until 1 h had passed. For MALDI-MS analysis, 1 μl of the diluted reaction mixture was dried on a MS gold chip and then layered with a concentrated sinipinic acid matrix on top for crystallization. Afterwards, the samples were analyzed by the Bio-Rad MALDI-MS system.

The test system of series [4] is SORT1–PGRN interaction. Kind of series: MSD-based SORT1–PGRN interaction assay. In kind it is biochemical, human. The following applies: 200 nM tagged rPGRN, SORT1-Flag captured on MSD plate. As for the experimental part: M17 cells were transfected with pCMV-SORT1-Flag for 48 h. Then, the cell lysate was harvested by the same method used in the co-immunoprecipitation assay. Expression of SORT1-Flag protein was confirmed by western blot. MSD plate was first coated with the Flag M2 antibody (Sigma). Following an overnight incubation at 4°C, the plate was blocked for 2 h and then washed prior to addition of 5 µg/well of lysate protein containing SORT1-Flag protein. After overnight incubation at 4°C, it was then washed and added with 200 nM of either N-6His- or C-6His-tagged rPGRN pre-incubated with either vehicle, 20 µM or 200 µM of BVFP, for 30 min at room temperature. Then plate was then incubated for 2 h, washed and incubated with a mixture of PCDGF antibody and a SULFO-TAG-labeled anti-rabbit IgG antibody for 2 h. After final wash, the plate was read by the MSD Sector Imager 2400.

For series [5], the system named is SORT1. Kind of series: PGRN endocytosis in M17 cells overexpressing SORT1. Format: cell-based. The conditions noted are these: for endocytosis of rPGRN: M17^SORT1 cells, rPGRN 500 ng/ml, 60 min, immunofluorescence. On the procedure: M17 cells seeded in 12-well culture plates (western blot) or on glass coverslips in 24-well culture plate (immunofluorescence) were transfected with pEGFP-N1 (Clontech) or pCMV-SORT1 (OriGene) vectors. Next day, the cells were changed into serum-free medium 1 h before addition of rPGRN (500 ng/ml) and treated for 60 min. The cells were then put on ice and washed with cold PBS. For western blot, cells were lysed in cold M-Per protein extraction buffer followed by standard procedures as mentioned. For immunofluorescence analyses, cells were fixed in 4% paraformaldehyde solution followed by PBS washes. The cells were then incubated in blocking buffer (PBS, 5% goat serum, 0.1% saponin) for 1 h at room temperature followed by incubation in primary antibody overnight at 4°C. The cells were incubated with secondary antibodies (1:1000) for 1 h at room temperature. The coverslips were then mounted onto slides and waited overnight before analysis. Image analysis was performed by Zeiss LSM 510 META confocal microscope using 60× magnification setting.

Series [6] relates to SORT1. Kind of series: SORT1 protein level in M17 cells (western blot). In kind it is cell-based. The following applies: M17, rPGRN at 50 ng/ml, 1, 2 and 4 hours. On the procedure: PGRN, SORT1, GFP, GAPDH and β-actin proteins were analyzed using 10% Tris–glycine polyacrylamide gel by SDS–PAGE. After electrophoresis, proteins on gel were transblotted to PVDF membranes followed by standard immunoblotting protocols.

The test system of series [7] is PGRN endocytosis in SORT1^KO-hESCs. As to the kind of experiment: DyL-rPGRN endocytosis in SORT1^KO-hESCs. The conditions noted are these: SORT1^KO-hESC compared with WT-hESC. In kind it is cell-based, human. The text has this:
To determine whether BVFP, when bound to PGRN, disrupts full-length PGRN and SORT1 binding, we devised a SORT1-dependent rPGRN precipitation assay utilizing the Meso-Scale Discovery (MSD) system (Supplementary Material, Fig. S4A and B). […] To include a higher-affinity PGRN588–593 motif binder as a positive control, an antibody targeting the motif, PGRN-CT antibody, was made for validating the approach (Fig. 5F). […] First, we found SORT1 was abundantly expressed in the wild-type hESCs (Fig. 5H). Similar to the results from COS-1^SORT1 cells, BVFP and PGRN-CT antibody inhibited endocytosis of DyL-rPGRN by 22 and 39%, respectively, under the same experimental conditions in wild-type hESCs (Fig. 5I left).
COS-1 cells seeded on a 96-well black plate 1 day before were transfected with pCMV-SORT1 vector. After 24 h, cells were treated with fluorescence-tagged rPGRN (DyL-rPGRN) pre-labeled by DyLight™ 594 antibody labeling kit (Thermo Scientific). The DyL-rPGRN was diluted in OptiMEM to tested concentrations and incubated with the cells for 1 h for endocytosis. The cells were then washed with cold PBS and then fixed by 4% paraformaldehyde. After washing twice, each well was filled with PBS prior scanning. The total PGRN fluorescent signal from the cells was obtained by a plate reader with 593/618 nm (Ex/Em) settings. […]

Entries after “also recorded” stand apart in the source; their conditions may differ.

“ALRQLL [human PGRN588–593, custom-synthesized C-terminal peptide of human PGRN, -ALRQLL]”: the “inhibition of PGRN–SORT1 co-immunoprecipitation” value in series [1] is “significantly reduced the amount of rPGRN”. In addition, in series [2], the “inhibition of full-length PGRN endocytosis” value came out at 93%.
Turning to “PGRN574–593 peptide: synthetic PGRN574–593 peptide, molecular weight 2430 Da”, the “cleavage by neutrophil elastase” value in series [3] (7 μg peptide, 20 μg NE, 25 μl, 37°C, sampled every 10 min to 1 h) is “enzymatically cleaved by recombinant elastase (EL) in a time-dependent manner”. Also, in series [3] (product 1806 Da from 2430 Da), the “cleavage site / residues removed by elastase” value was “between residues Ala-588 and Leu-589; also recorded: last five residues were removed by EL”.
As for “ELYENKPRRPYIL [NTS, neurotensin, reference compound]”, the “inhibition of PGRN–SORT1 co-immunoprecipitation” value in series [1] is “significantly reduced the amount of rPGRN”. For the same molecule, the “inhibition of full-length PGRN endocytosis” value in series [2] is 90%.
In the same order, the values of “VPRPLL [mouse Pgrn584–589, mouse ortholog peptide of PGRN588–593, -VPRPLL]” are “significantly reduced the amount of rPGRN” and 73%.
As for “N-rP: human recombinant PGRN with 6-histidine tag on the amino-terminus”, in series [4], the “rPGRN binding to immobilized SORT1” value is on record as “specific binding signal”. In addition, in series [5] (M17 cells expressing titrated amounts of SORT1, western blot), the “endocytosis of tagged rPGRN” value was “dependently endocytosed”.

B1: rPGRN1-588: recombinant carboxyl-terminal-truncated PGRN 1–588 (protein)
chain: TRCPDGQFCPVACCLDPGGASYSCCRPLLDKWPTTLSRHLGGPCQVDAHCSAGHSCIFTVSGTSSCCPFPEAVACGDGHHCCPRGFHCSADGRSCFQRSGNNSVGAIQCPDSQFECPDFSTCCVMVDGSWGCCPMPQASCCEDRVHCCPHGAFCDLVHTRCITPTGTHPLAKKLPAQRTNRAVALSSSVMCPDARSRCPDGSTCCELPSGKYGCCPMPNATCCSDHLHCCPQDTVCDLIQSKCLSKENATTDLLTKLPAHTVGDVKCDMEVSCPDGYTCCRLQSGAWGCCPFTQAVCCEDHIHCCPAGFTCDTQKGTCEQGPHQVPWMEKAPAHLSLPDPQALKRDVPCDNVSSCPSSDTCCQLTSGEWGCCPIPEAVCCSDHQHCCPQGYTCVAEGQCQRGSEIVAGLEKMPARRASLSHPRDIGCDQHTSCPVGQTCCPSLGGSWACCQLPHAVCCEDRQHCCPAGYTCNVKARSCEKEVVSAQPATFLARSPHVGVKDVECGEGHFCHDNQTCCRDNRQGWACCPYRQGVCCADRRHCCPAGFRCAARGTKCLRREAPRWDAPLRDPA
modifications: left off: His6, N-terminal, state not stated
Turning to B1, the “endocytosis of rPGRN” value in series [5] is reported as “failed to be endocytosed”.

B2: rPGRN: wild-type human recombinant PGRN protein from stable HEK293 cells (protein)
chain: TRCPDGQFCPVACCLDPGGASYSCCRPLLDKWPTTLSRHLGGPCQVDAHCSAGHSCIFTVSGTSSCCPFPEAVACGDGHHCCPRGFHCSADGRSCFQRSGNNSVGAIQCPDSQFECPDFSTCCVMVDGSWGCCPMPQASCCEDRVHCCPHGAFCDLVHTRCITPTGTHPLAKKLPAQRTNRAVALSSSVMCPDARSRCPDGSTCCELPSGKYGCCPMPNATCCSDHLHCCPQDTVCDLIQSKCLSKENATTDLLTKLPAHTVGDVKCDMEVSCPDGYTCCRLQSGAWGCCPFTQAVCCEDHIHCCPAGFTCDTQKGTCEQGPHQVPWMEKAPAHLSLPDPQALKRDVPCDNVSSCPSSDTCCQLTSGEWGCCPIPEAVCCSDHQHCCPQGYTCVAEGQCQRGSEIVAGLEKMPARRASLSHPRDIGCDQHTSCPVGQTCCPSLGGSWACCQLPHAVCCEDRQHCCPAGYTCNVKARSCEKEVVSAQPATFLARSPHVGVKDVECGEGHFCHDNQTCCRDNRQGWACCPYRQGVCCADRRHCCPAGFRCAARGTKCLRREAPRWDAPLRDPALRQLL
modifications: left off: His6, N-terminal, state not stated
With B2, in series [5], the “endocytosis of rPGRN” value is “significantly endocytosed”. In addition, the “subcellular localization after endocytosis” value in series [5] (M17 cells overexpressing SORT1) is reported as “endolysosomal localization”. For the same molecule, in series [6], the “SORT1 level after rPGRN treatment” value is on record as “No significant changes in SORT1”.

B3: DyL-rPGRN: DyLight™-594 fluorescence-labeled rPGRN (conjugate, UniProt P28799 1-593, looked up)
chain: MWTLVSWVALTAGLVAGTRCPDGQFCPVACCLDPGGASYSCCRPLLDKWPTTLSRHLGGPCQVDAHCSAGHSCIFTVSGTSSCCPFPEAVACGDGHHCCPRGFHCSADGRSCFQRSGNNSVGAIQCPDSQFECPDFSTCCVMVDGSWGCCPMPQASCCEDRVHCCPHGAFCDLVHTRCITPTGTHPLAKKLPAQRTNRAVALSSSVMCPDARSRCPDGSTCCELPSGKYGCCPMPNATCCSDHLHCCPQDTVCDLIQSKCLSKENATTDLLTKLPAHTVGDVKCDMEVSCPDGYTCCRLQSGAWGCCPFTQAVCCEDHIHCCPAGFTCDTQKGTCEQGPHQVPWMEKAPAHLSLPDPQALKRDVPCDNVSSCPSSDTCCQLTSGEWGCCPIPEAVCCSDHQHCCPQGYTCVAEGQCQRGSEIVAGLEKMPARRASLSHPRDIGCDQHTSCPVGQTCCPSLGGSWACCQLPHAVCCEDRQHCCPAGYTCNVKARSCEKEVVSAQPATFLARSPHVGVKDVECGEGHFCHDNQTCCRDNRQGWACCPYRQGVCCADRRHCCPAGFRCAARGTKCLRREAPRWDAPLRDPALRQLL
modifications: full-length DyLight 594 label
notes: DyLight™-594 fluorescence-labeled rPGRN
For the molecule B3, in series [2] (COS-1^SORT1, DyL-rPGRN 0 to 50 nM, 593/618 nm), the DyL-rPGRN endocytosis response entry is given as “linear, non-saturated endocytosis response”. In addition, the DyL-rPGRN endocytosis signal entry in series [7] was “significantly lower signal compared with the WT-hESCs”.

(Values after PMC3929086, “Targeted manipulation of the sortilin–progranulin axis rescues progranulin haploinsufficiency” (Human Molecular Genetics, 2013).)
